The record followed here is patent EP0108351A2, “Use of substituted malonic-acid derivatives as pesticides” (BAYER AG, priority 1982, dated 1984).

What all share (type): in vivo
The test system of test [1] is Myzus pesicae. Briefly: Limit concentration test / root-systemic action (Myzus). Conditions: compound mixed into soil, cabbage; leaves infested after 7 days, evaluated after 2 more days; concentration not given. From the text:
Testinsekt: Myzus pesicae Lösungsmittel: 3 Gewichtsteile Aceton Emulgator: 1 Gewichtsteil Alkylarylpolyglykolether
(§1) Zur Herstellung einer zweckmäßigen Wirkstoffzubereitung vermischt man 1 Gewichtsteil Wirkstoff mit der angegebenen Menge Lösungsmittel, gibt die angegebene Menge Emulgator zu und verdünnt das Konzentrat mit Wasser auf die gewünschte Konzentration.
Die Wirkstoffzubereitung wird innig mit Boden vermischt. Dabei spielt die Konzentration des Wirkstoffs in der Zubereitung praktisch keine Rolle, entscheidend ist allein die Wirkstoffgewichtsmenge pro Volumeneinheit Boden, welche in ppm (= mg/1) angegeben wird. Man füllt den behandelten Boden in Töpfe und bepflanzt diese mit Kohl (Brassica oleracea). Der Wirkstoff kann so von den Pflanzenwurzeln aus dem Boden aufgenommen und in die Blätter transportiert werden.
Für den Nachweis des wurzelsystemischen Effektes werden nach 7 Tagen ausschließlich die Blätter mit den obengenannten Testtieren besetzt. Nach weiteren 2 Tagen erfolgt die Auswertung durch Zählen oder Schätzen der toten Tiere. Aus den Abtötungszahlen wird die wurzelsystemische Wirkung des Wirkstoffs abgeleitet. Sie ist 100 %, wenn alle Testtiere abgetötet sind und 0 %, wenn noch genau so viele Testinsekten leben wie bei der unbehandelten Kontrolle.

Test [2] concerns Plutella maculipennis. Briefly: Plutella test (cabbage leaves dipped, caterpillars placed on them). Conditions: cabbage leaves (Brassica oleracea) dipped; concentration and time not stated; compared with prior art. From the text: Lösungsmittel: 3 Gewichtsteile Dimethylformamid Emulgator : -1 Gewichtsteil Alkylarylpolyglykolether
(§2) Zur Herstellung einer zweckmäßigen Wirkstoffzubereitung vermischt man 1 Gewichtsteil Wirkstoff mit der angegebenen Menge Lösungsmittel und der angegebenen Menge Emulgator und verdünnt das Konzentrat mit Wasser auf die gewünschte Konzentration.
Kohlblätter (Brassica oleracea) werden durch Tauchen in die Wirkstoffzubereitung der gewünschten Konzentration behandelt und mit Raupen der Kohlschabe (Plutella maculipennis) besetzt, solange die Blätter noch feucht sind.
Nach der gewünschten Zeit wird die Abtötung in % bestimmt. Dabei bedeutet 100 %, daß alle Raupen abgetötet wurden; 0 % bedeutet, daß keine Raupen abgetötet wurden.

Test [3] has as its system Phorbia antiqua (im Boden). The experiment in a line: Limit concentration test / soil insects. Conditions: compound mixed into soil; insects added after 24 hours, evaluated after 2 to 7 more days; concentration not given.
Excerpt: Testinsekt: Phorbia antiqua (im Boden) Lösungsmittel: 3 Gewichtsteile Aceton Emulgator: 1 Gewichtsteil Alkylarylpolyglykolether
as §1
Die Wirkstoffzubereitung wird innig mit dem Boden vermischt. Dabei spielt die Konzentration des Wirkstoffs in der Zubereitung praktisch keine Rolle, entscheidend ist allein die Wirkstoffgewichtsmenge pro Volumeneinheit Boden, welche in ppm (= mg/1) angegeben wird. Man füllt den Boden in Töpfe und läßt diese bei Raumtemperatur stehen.
Nach 24 Stunden werden die Testtiere in den behandelten Boden gegeben und nach weiteren 2 bis 7 Tagen wird der Wirkungsgrad des Wirkstoffs durch Auszählen der toten und lebenden Testinsekten in % bestimmt, Der Wirkungsgrad ist 100 %, wenn alle Testinsekten abgetötet worden sind, er ist O %, wenn noch genau so viele Testinsekten leben wie bei der unbehandelten Kontrolle.

Test [4] has as its system Tetranychus urticae. The experiment in a line: Tetranychus test (resistant), infested bean plants dipped. Conditions: bean plants (Phaseolus vulgaris) dipped; all stages of mites; concentration and time not stated; compared with prior art.
Excerpt: Lösungsmittel: 3 Gewichtsteile Dimethylformamid Emulgator: . 1 Gewichtsteil Alkylarylpolyglykolether
as §2
Bohnenpflanzen (Phaseolus vulgaris), die stark von allen Entwicklungsstadien der gemeinen Spinnmilbe oder Bohnenspinnmilbe (Tetranychus urticae) befallen sind, werden durch Tauchen in die Wirkstoffzubereitung der gewünschten Konzentration behandelt.
Nach der gewünschten Zeit wird die Abtötung in % bestimmt. Dabei bedeutet 100 %, daß alle Spinnmilben abgetötet wurden; 0 % bedeutet, daß keine Spinnmilben abgetötet wurden.

The test system of test [5] is Lucilia cuprina res.-Larven. The experiment in a line: Test with Lucilia cuprina res. larvae. Conditions: Wirkstoffkonzentration 1000 ppm, after 24 hours, read-out: Abtötung. Here is the method:
Emulgator: 35 Gewichtsteile Ethylenglkolmonomethylether 35 Gewichtsteile Nonylphenolpolyglykolether
Zur Herstellung einer zweckmäßigen Wirkstoffzubereitung vermischt man drei Gewichtsteile Wirkstott mit sieben Gewichtsteilen des oben angegebenen Lösungsmittel-Gemisches und verdünnt das so erhaltene Konzentrat mit Wasser auf die jeweils gewünschte Konzentration.
Etwa 20 Lucilia cuprina res.-Larven werden in ein Teströhrchen gebracht, welches ca. 1 cm^2 Pferdefleisch und 0,5 ml der Wirkstoffzubereitung enthält. Nach 24 Stunden wird der Abtötungsgrad bestimmt.

In the case of `COC(C(N)=O)(C(N)=O)c1ccc(Cl)c(Cl)c1` [Beispiel 1, 2-(3,4-Dichlorphenyl)-2-methoxy-malonsäurediamid], the “wurzelsystemische Wirkung gegenüber dem Stand der Technik” value in test [1] is “überlegene Wirkung gegenüber dem Stand der Technik”. In addition, the “Wirksamkeit gegenüber dem Stand der Technik (Abtötung in %)” value in test [2] and in test [4] was “überlegene Wirksamkeit gegenüber dem Stand der Technik” each time. For the same compound, the “Wirkungsgrad gegenüber dem Stand der Technik” value in test [3] was “überlegene Wirkung gegenüber dem Stand der Technik”.
In the case of `NC(=O)C(OC(=O)c1ccccc1Cl)C(=O)Nc1ccc(Cl)c(Cl)c1` (centres unmarked) [Beispiel 2, 3,4-Dichlorphenyl-(2-chlorbenzoyloxy)-malonsäurediamid], the “Wirksamkeit gegenüber dem Stand der Technik (Abtötung in %)” value in test [2] is “überlegene Wirksamkeit gegenüber dem Stand der Technik”.
Same read-out and setting: under `NC(=O)C(OC(=O)c1ccccc1)(C(N)=O)c1ccc(Cl)c(Cl)c1` [Beispiel 3, 3,4-Dichlorphenylbenzoyloxymalonsäurediamid] stands “überlegene Wirksamkeit gegenüber dem Stand der Technik”.
Regarding `CC(=O)OC(C(N)=O)(C(N)=O)c1ccc(Cl)c(Cl)c1` [Beispiel 4, 3,4-Dichlorphenylacetoxymalonsäurediamid], in test [2], the “Wirksamkeit gegenüber dem Stand der Technik (Abtötung in %)” value was “überlegene Wirksamkeit gegenüber dem Stand der Technik”.
With `CNS(=O)(=O)OC(C(N)=O)(C(N)=O)c1ccc(Cl)c(Cl)c1` [Beispiel 5, 3,4-Dichlorphenylmethylsulfamoyloxymalonsäurediamid], the “Wirksamkeit gegenüber dem Stand der Technik (Abtötung in %)” value in test [2] and in test [4] was “überlegene Wirksamkeit gegenüber dem Stand der Technik” in each case.
As to `CNC(=O)C(O)(C(N)=O)c1ccccc1` (centres unmarked) [Beispiel 27, Phenylhydroxymalonsäureamidmethylamid], the “wurzelsystemische Wirkung gegenüber dem Stand der Technik” value in test [1] is “überlegene Wirkung gegenüber dem Stand der Technik”.
On the same count and under the same terms, under `NC(=O)C(O)(C(=O)[O-])c1ccccc1.[Na+]` (centres unmarked) [Beispiel 33, Mononatriumsalzes des Phenylhydroxymalonsäuremonoamids] stands “überlegene Wirkung gegenüber dem Stand der Technik”.
`NC(=O)C(OSC(F)(Cl)Cl)(C(N)=O)c1ccc(Cl)c(Cl)c1` [Beispiel 36, 3,4-Dichlorphenyl-dichlorfluormethylsulfenyloxy-malonsäurediamid]: the “Wirksamkeit gegenüber dem Stand der Technik (Abtötung in %)” value in test [2] and in test [4] was “überlegene Wirksamkeit gegenüber dem Stand der Technik” each time.
Take `NC(=O)C(O)(C(=O)NC=O)c1ccc(Cl)c(Cl)c1` (centres unmarked) [Beispiel 37, 3,4-Dichlorphenylhydroxymalonsäureamidformylamid]: the “Wirksamkeit gegenüber dem Stand der Technik (Abtötung in %)” value in test [2] and in test [4] was “überlegene Wirksamkeit gegenüber dem Stand der Technik” in each case.
For `CC(=O)NC(=O)C(O)(C(N)=O)c1ccccc1` (centres unmarked) [Beispiel 38, Phenylhydroxymalonsäureamidacetylamid], the “Wirksamkeit gegenüber dem Stand der Technik (Abtötung in %)” value in test [2] is reported as “überlegene Wirksamkeit gegenüber dem Stand der Technik”.
On to `CC(=O)NC(=O)C(O)(C(N)=O)c1ccc(Cl)c(Cl)c1` (centres unmarked) [Beispiel 38a, 3,4-Dichlorphenylhydroxymalonsäureamidacetylamid], for which the “Wirksamkeit gegenüber dem Stand der Technik (Abtötung in %)” value in test [2] is “überlegene Wirksamkeit gegenüber dem Stand der Technik”. In test [3], the “Wirkungsgrad gegenüber dem Stand der Technik” value was “überlegene Wirkung gegenüber dem Stand der Technik”.
With `CC(=O)NC(=O)C(OC(C)=O)(C(N)=O)c1ccc(Cl)c(Cl)c1` (centres unmarked) [Beispiel 39, 3,4-Dichlorphenylacetoxy-malonsäureamidacetylamid], the “Wirksamkeit gegenüber dem Stand der Technik (Abtötung in %)” value in test [2] and in test [4] was “überlegene Wirksamkeit gegenüber dem Stand der Technik” throughout. The “Wirkungsgrad gegenüber dem Stand der Technik” value in test [3] is recorded as “überlegene Wirkung gegenüber dem Stand der Technik”.
In the case of `CC(=O)NC(=O)C(OC(C)=O)(C(=O)NC(C)=O)c1ccc(Cl)c(Cl)c1` [Beispiel 40, 3,4-Dichlorphenyl-acetoxy-malonsäurebisacetylamid], the “Wirksamkeit gegenüber dem Stand der Technik (Abtötung in %)” value in test [2] and in test [4] was “überlegene Wirksamkeit gegenüber dem Stand der Technik” throughout. The “Wirkungsgrad gegenüber dem Stand der Technik” value in test [3] was “überlegene Wirkung gegenüber dem Stand der Technik”.
For the compound `CC(=O)NC(=O)C(OC(=O)c1ccccc1)(C(=O)NC(C)=O)c1ccc(Cl)c(Cl)c1` [Beispiel 41, 3,4-Dichlorphenylbenzoyloxymalonsäurebisacetylamid], the “Wirksamkeit gegenüber dem Stand der Technik (Abtötung in %)” value in test [2] and in test [4] was “überlegene Wirksamkeit gegenüber dem Stand der Technik” throughout.
As for `C[Si](C)(C)OC(C(N)=O)(C(N)=O)c1ccc(Cl)c(Cl)c1` [Beispiel 47, 2-(3,4-Dichlorphenyl)-2-trimethylsilyloxy-malonsäurediamid], the “wurzelsystemische Wirkung gegenüber dem Stand der Technik” value in test [1] is “überlegene Wirkung gegenüber dem Stand der Technik”. Moreover, the “Wirksamkeit gegenüber dem Stand der Technik (Abtötung in %)” value in test [2] and in test [4] was “überlegene Wirksamkeit gegenüber dem Stand der Technik” in each case. For the same compound, in test [3], the “Wirkungsgrad gegenüber dem Stand der Technik” value is “überlegene Wirkung gegenüber dem Stand der Technik”. In addition, in test [5], the mortality at 1000 µg/mL is 100%.
`C[Si](C)(C)NC(=O)C(O[Si](C)(C)C)(C(=O)N[Si](C)(C)C)c1ccc(Cl)c(Cl)c1` [Beispiel 48]: the “Wirksamkeit gegenüber dem Stand der Technik (Abtötung in %)” value in test [2] and in test [4] was “überlegene Wirksamkeit gegenüber dem Stand der Technik” throughout. Further, the “Wirkungsgrad gegenüber dem Stand der Technik” value in test [3] is recorded as “überlegene Wirkung gegenüber dem Stand der Technik”.
As to `CC(C)(C)NC(=O)C(O)(C(=O)NC(C)(C)C)c1ccccc1` [Beispiel 52, Phenylhydroxymalonsäure-bis-tert.-butylamid], the “wurzelsystemische Wirkung gegenüber dem Stand der Technik” value in test [1] is on record as “überlegene Wirkung gegenüber dem Stand der Technik”.
